Laboratory results reported in ChEMBL document CHEMBL5537157, “Selective Antitumor Effect and Lower Toxicity of Mitochondrion-Targeting Derivatization of Triptolide” (J Med Chem, 2024).
Active and inactive are the calls of the source. No cut-off for these calls is given here.

Legend:
[1] = test system: A549; test: Cytotoxicity against human A549 cells assessed as cell growth inhibition incubated for 48 hrs by MTT assay; type: functional, cell-based
[2] = test system: NCI-H460; test: Cytotoxicity against human NCI-H460 cells assessed as inhibition of cell viability incubated for 48 hrs by MTT assay; type: functional, cell-based; conditions: NCI-H460, 48 h
[3] = test system: NCI-H1975; test: Cytotoxicity against human NCI-H1975 cells assessed as cell growth inhibition incubated for 48 hrs by MTT assay relative to control; type: functional
[4] = test system: BEAS-2B; test: Cytotoxicity against human BEAS-2B cells assessed as cell growth inhibition incubated for 48 hrs by MTT assay; type: toxicity, cell-based
[5] = test system: NCI-H1975; test: Cytotoxicity against human NCI-H1975 cells assessed as cell growth inhibition incubated for 48 hrs by MTT assay; type: functional, cell-based
[6] = test system: A549; test: Cytotoxicity against human A549 cells assessed as inhibition of cell viability incubated for 48 hrs by MTT assay; type: functional, cell-based; conditions: A549, 48 h
[7] = test system: NCI-H460; test: Cytotoxicity against human NCI-H460 cells assessed as cell growth inhibition incubated for 48 hrs by MTT assay; type: functional, cell-based
[8] = Cytotoxicity against human BEAS-2B cells assessed as inhibition of cell viability incubated for 48 hrs by MTT assay; type: toxicity, cell-based
[9] = test system: MCF7; test: Cytotoxicity against human MCF7 cells assessed as cell growth inhibition incubated for 48 hrs by MTT assay; type: functional, cell-based
[10] = test system: NCI-H1975; test: Cytotoxicity against human NCI-H1975 cells assessed as inhibition of cell viability incubated for 48 hrs by MTT assay; type: functional, cell-based; conditions: NCI-H1975, 48 h
[11] = test system: MCF7; test: Cytotoxicity against human MCF7 cells assessed as inhibition of cell viability incubated for 48 hrs by MTT assay; type: functional, cell-based; conditions: MCF7, 48 h
[12] = Drug accumulation in mitochondria of human NCI-H1975 cells at 120 nM incubated for 5 hrs by Red CMXRos probe based analysis; type: ADME; conditions: nci-h1975, 5 h, 0.12 µM
[13] = test system: NCI-H1975; test: Inhibition of cell viability in human NCI-H1975 cells assessed as effect on cell index at 80 nM by real-time cell analysis; type: functional, cell-based

Drug uptake [12] | Structure (SMILES) | inhibition [1] | IC50 [2] [µM] | Imax [3] [%] | inhibition (INH) [4] | inhibition [5] | IC50 [6] [µM] | inhibition [7] | IC50 at 48 h [8] [µM] | inhibition [9] | IC50 [10] [µM] | IC50 [11] [µM] | inhibition [13]
 | CC(C)[C@]12O[C@H]1[C@@H]1O[C@]13[C@]1(O[C@H]1C[C@H]1C4=C(CC[C@@]13C)C(=O)OC4)[C@@H]2OC(=O)CCCCC[P+](c1ccccc1)(c1ccccc1)c1ccccc1.[Br-] | Dose-Dependent Effect | > 10 | ~65 | Dose-Dependent Effect | Dose-Dependent Effect | > 10 | Dose-Dependent Effect | > 10 | Dose-Dependent Effect | 0.14 | > 10 | 
 | CC(C)[C@]12O[C@H]1[C@@H]1O[C@]13[C@]1(O[C@H]1C[C@H]1C4=C(CC[C@@]13C)C(=O)OC4)[C@]2(O)COC(=O)CCCCCCCC[P+](c1ccccc1)(c1ccccc1)c1ccccc1 |  | 27.7 |  |  |  | 21.7 |  | 23.4 |  | 24.7 | 20.9 | 
 | CC(C)[C@]12O[C@H]1[C@@H]1O[C@]13[C@]1(O[C@H]1C[C@H]1C4=C(CC[C@@]13C)C(=O)OC4)[C@]2(O)C=O |  | > 50 |  |  |  | > 100 |  | > 100 |  | > 50 | > 100 | 
 | CC(C)[C@]12O[C@H]1[C@@H]1O[C@]13[C@]1(O[C@H]1C[C@H]1C4=C(CC[C@@]13C)C(=O)OC4)[C@]2(O)COC(=O)CCCCCC[P+](c1ccccc1)(c1ccccc1)c1ccccc1 |  | > 50 |  |  |  | 38.4 |  | > 30 |  | > 30 | > 50 | 
 | CC(C)[C@]12O[C@H]1[C@@H]1O[C@]13[C@]1(O[C@H]1C[C@H]1C4=C(CC[C@@]13C)C(=O)OC4)[C@]2(O)COC(=O)CCCCCCCCC[P+](c1ccccc1)(c1ccccc1)c1ccccc1 |  | 26.7 |  |  |  | 23 |  | 23.6 |  | 18.6 | 30.2 | 
 | COc1cccc2c1C(=O)c1c(O)c3c(c(O)c1C2=O)C[C@@](O)(C(=O)CO)C[C@@H]3O[C@H]1C[C@H](N)[C@H](O)[C@H](C)O1 [DOXORUBICIN] |  | 0.581 |  |  |  | 2.54 |  | 42 |  | 2.64 |  | 
Active | CC(C)[C@]12O[C@H]1[C@@H]1O[C@]13[C@]1(O[C@H]1C[C@H]1C4=C(CC[C@@]13C)C(=O)OC4)[C@@H]2OC(=O)CCCCCCC[n+]1ccc(/C=C/c2c[nH]c3ccccc23)cc1.[Br-] |  | 17.5 |  |  |  | > 50 |  | 48.8 |  | 0.4 | 7.09 | Active
 | CC(C)[C@]12O[C@H]1[C@@H]1O[C@]13[C@]1(O[C@H]1C[C@H]1C4=C(CC[C@@]13C)C(=O)OC4)[C@]2(O)COC(=O)CCCCC[P+](c1ccccc1)(c1ccccc1)c1ccccc1 |  | > 50 |  |  |  | > 100 |  | > 50 |  | > 100 | > 50 | 
 | C[n+]1ccc(/C=C/c2c[nH]c3ccccc23)cc1 |  | > 50 |  |  |  | > 100 |  | > 100 |  | > 50 | > 100 | 
 | CC(C)[C@]12O[C@H]1[C@@H]1O[C@]13[C@]1(O[C@H]1C[C@H]1C4=C(CC[C@@]13C)C(=O)OC4)[C@]2(O)COC(=O)CCCCCCC[P+](c1ccccc1)(c1ccccc1)c1ccccc1 |  | 29.9 |  |  |  | 27.3 |  | 21.7 |  | 24.9 | > 100 | 
 | CC(C)[C@]12O[C@H]1[C@@H]1O[C@]13[C@]1(O[C@H]1C[C@H]1C4=C(CC[C@@]13C)C(=O)OC4)[C@]2(O)COC(=O)CCCC[P+](c1ccccc1)(c1ccccc1)c1ccccc1 |  | > 100 |  |  |  | > 100 |  | > 100 |  | > 100 | > 100 | 
 | CC(C)[C@]12O[C@H]1[C@@H]1O[C@]13[C@]1(O[C@H]1C[C@H]1C4=C(CC[C@@]13C)C(=O)OC4)[C@@H]2OC(=O)CCCCCCCCCC[n+]1ccc(/C=C/c2c[nH]c3ccccc23)cc1 |  |  |  |  |  | > 50 |  | 12.7 |  | 0.34 | 5.26 | 
 | C1=CCC(P(c2ccccc2)c2ccccc2)C=C1 (stereo not given) |  | > 100 |  |  |  | > 100 |  | > 100 |  | > 100 | > 100 | 
 | CC(C)[C@]12O[C@H]1[C@@H]1O[C@]13[C@]1(O[C@H]1C[C@H]1C4=C(CC[C@@]13C)C(=O)OC4)[C@]2(O)CO |  | > 50 |  |  |  | > 100 |  | > 100 |  | > 100 | > 100 | 
 | CC(C)[C@]12O[C@H]1[C@@H]1O[C@]13[C@]1(O[C@H]1C[C@H]1C4=C(CC[C@@]13C)C(=O)OC4)[C@@H]2OC(=O)CCCCC[n+]1ccc(/C=C/c2c[nH]c3ccccc23)cc1 |  | 3.12 |  |  |  | > 50 |  | 94.3 |  | 2.86 | 16.7 | 
 | CC(C)[C@]12O[C@H]1[C@@H]1O[C@]13[C@]1(O[C@H]1C[C@H]1C4=C(CC[C@@]13C)C(=O)OC4)[C@@H]2OC(=O)CCCC[n+]1ccc(/C=C/c2c[nH]c3ccccc23)cc1 |  | > 50 |  |  |  | > 50 |  | 35.7 |  | 5.74 | 47.2 | 
 | CC(C)[C@]12O[C@H]1[C@@H]1O[C@]13[C@]1(O[C@H]1C[C@H]1C4=C(CC[C@@]13C)C(=O)OC4)[C@@H]2OC(=O)CCCCCCCCC[n+]1ccc(/C=C/c2c[nH]c3ccccc23)cc1 |  | 5.09 |  |  |  | 24.9 |  | 11.9 |  | 0.44 | 6.24 | 
 | CC(C)[C@]12O[C@H]1[C@@H]1O[C@]13[C@]1(O[C@H]1C[C@H]1C4=C(CC[C@@]13C)C(=O)OC4)[C@@H]2OC(=O)CCCCCC[n+]1ccc(/C=C/c2c[nH]c3ccccc23)cc1 |  | 11.9 |  |  |  | 47.8 |  | 27.9 |  | 0.27 |  | 
